Measured values reported in patent publication US8071600B2, “Derivatives of 4-piperazin-1-yl-4-benzo[B]thiophene suitable for the treatment of CNS disorders” (Otsuka Pharmaceutical Co., Ltd., priority 2005, dated 2011).
Counter-ions that a name gives are not always drawn.

Tests used:
Dopamine D2 receptor = target: T1, Dopamine D2 receptor (Rattus norvegicus, UniProt P61169); experiment: Dopamine D2 receptor binding assay ([3H]-raclopride); conditions: Dopamine D2 receptor binding test, rat corpus striatum membrane, Ki calculated from IC50 by Cheng-Prussoff formula
T1 construct: from tissue; host or cells: Wistar rat brain, corpus striatum membranes
T1 sequence (P61169 whole entry): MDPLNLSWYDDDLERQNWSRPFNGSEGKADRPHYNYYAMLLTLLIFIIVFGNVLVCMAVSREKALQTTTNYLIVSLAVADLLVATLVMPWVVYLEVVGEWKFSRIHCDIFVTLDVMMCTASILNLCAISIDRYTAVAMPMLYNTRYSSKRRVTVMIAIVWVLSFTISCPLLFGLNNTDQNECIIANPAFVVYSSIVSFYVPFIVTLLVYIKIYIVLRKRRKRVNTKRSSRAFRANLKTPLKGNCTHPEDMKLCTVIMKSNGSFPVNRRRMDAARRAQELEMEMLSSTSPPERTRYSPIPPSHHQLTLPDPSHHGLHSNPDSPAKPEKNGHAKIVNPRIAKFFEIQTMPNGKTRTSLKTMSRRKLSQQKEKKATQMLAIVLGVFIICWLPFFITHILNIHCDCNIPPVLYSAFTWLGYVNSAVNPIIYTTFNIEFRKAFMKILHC
Procedure: 1) Dopamine D2 Receptor Binding Assay
The assay was performed according to the method by Kohler et al. (Kohler C, Hall H, Ogren S O and Gawell L, Specific in vitro and in vivo binding of 3H-raclopride. A potent substituted benzamide drug with high affinity for dopamine D-2 receptors in the rat brain. Biochem. Pharmacol., 1985; 34: 2251-2259).
Wistar male rats were decapitated, the brain was retrieved immediately and corpus striatum was taken out. It was homogenized in 50 mM tris(hydroxymethyl)aminomethane (Tris)-hydrochloric acid buffer (pH 7.4) of a volume 50 times of the weight of the tissue using a homogenizer with a high-speed rotating blade, and centrifuged at 4° C., 48,000×g for 10 minutes. The obtained precipitate was suspended again in the above-described buffer of a volume 50 times of the weight of the tissue and after incubated at 37° C. for 10 minutes, centrifuged in the above-described condition. The obtained precipitate was suspended in 50 mM (Tris)-hydrochloric acid buffer (containing 120 mM NaCl, 5 mM KCl, 2 mM CaCl2, 1 mM MgCl2, pH 7.4) of a volume 25 times of the weight of the tissue and preserved by freezing at −85° C. till it was used for binding assay as a membrane specimen.
The binding assay was performed using 40 μl of the membrane specimen, 20 μl of [^3H]-raclopride (final concentration 1 to 2 nM), 20 μl of a test drug and 50 mM Tris-hydrochloric acid buffer (containing 120 mM NaCl, 5 mM KCl, 2 mM CaCl2, 1 mM MgCl2, pH 7.4) so that the total amount was 200 μl (final dimethylsulfoxide concentration 1%). The reaction was performed at room temperature for 1 hour and terminated by conducting suction filtration with a cell harvester on a glass fiber filter plate. The filter plate made of glass fiber was washed with 50 mM Tris-hydrochloric acid buffer (pH 7.4), and after dried, a microplate liquid scintillation cocktail was added and the radioactivity was measured with a microplate scintillation counter. Radioactivity in the presence of 10 μM (+)-butaclamol hydrochloride was assumed as nonspecific binding.
(§1) IC50 value was calculated from concentration-dependent reaction using a non-linear analysis program. Ki value was calculated from IC50 value using Cheng-Prussoff formula.

[1] = target: T2, Serotonin 5-HT2A receptor (Rattus norvegicus, UniProt P14842); experiment: Serotonin 5-HT2A receptor binding assay ([3H]-Ketanserin); conditions: Serotonin 5-HT2A receptor binding test, rat frontal cortex membrane, Ki calculated from IC50 by Cheng-Prussoff formula
T2 construct: from tissue; host or cells: Wistar rat brain, frontal cortex membranes
T2 sequence (P14842 whole entry): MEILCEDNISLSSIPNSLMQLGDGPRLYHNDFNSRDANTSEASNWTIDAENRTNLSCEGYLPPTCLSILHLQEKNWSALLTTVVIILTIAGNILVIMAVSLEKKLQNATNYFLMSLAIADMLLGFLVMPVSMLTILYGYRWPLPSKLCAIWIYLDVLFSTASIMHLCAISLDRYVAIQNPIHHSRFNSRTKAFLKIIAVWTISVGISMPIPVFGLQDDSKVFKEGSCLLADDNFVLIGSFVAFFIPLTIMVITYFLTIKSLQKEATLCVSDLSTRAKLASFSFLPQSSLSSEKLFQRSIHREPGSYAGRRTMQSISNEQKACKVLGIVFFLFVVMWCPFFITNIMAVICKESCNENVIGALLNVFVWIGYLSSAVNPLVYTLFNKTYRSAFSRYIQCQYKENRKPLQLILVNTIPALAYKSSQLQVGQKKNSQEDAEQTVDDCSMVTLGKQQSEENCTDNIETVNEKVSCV
Procedure: 2) Serotonin 5-HT2A Receptor Binding Assay
The assay was performed according to the method by Leysen J E et al. (Leysen J E, Niemegeers C J E, Van Nueten J M and Laduron P M. [3H] Ketanserin (R 41 468), a selective 3H-ligand for serotonin 2 receptor binding sites. Mol. Pharmacol., 1982, 21: 301-314).
Wistar male rats were decapitated, the brain was retrieved immediately and frontal cortex was taken out. It was homogenized in 0.25 M sucrose of a volume 10 times of the weight of the tissue using a Teflon glass homogenizer, and centrifuged at 4° C., 1,000×g for 10 minutes. The obtained supernatant was transferred to another centrifuge tube and suspended in 0.25 M sucrose of a volume 5 times of the weight of the tissue and the precipitate was centrifuged in the above-described condition. The obtained supernatant was combined with the supernatant obtained above and adjusted to a volume 40 times of the weight of the tissue with 50 mM Tris-hydrochloric acid buffer (pH 7.4), and centrifuged at 4° C., 35,000×g for 10 minutes. The obtained precipitate was suspended again in the above-described buffer of a volume 40 times of the weight of the tissue and centrifuged in the above-described condition. The obtained precipitate was suspended in the above-described buffer of a volume 20 times of the weight of the tissue and preserved by freezing at −85° C. till it was used for binding assay as a membrane specimen.
The binding assay was performed using 40 μl of the membrane specimen, 20 μl of [^3H]-Ketanserin (final concentration 1 to 3 nM), 20 μl of a test drug and 50 mM Tris-hydrochloric acid buffer (pH 7.4) so that the total amount was 200 μl (final dimethylsulfoxide concentration 1%). The reaction was performed at 37° C. for 20 minutes and terminated by conducting suction filtration with a cell harvester on a glass fiber filter plate.
The filter plate made of glass fiber was washed with 50 mM Tris-hydrochloric acid buffer (pH 7.4), and after dried, a microplate liquid scintillation cocktail was added and the radioactivity was measured with a microplate scintillation counter. Radioactivity in the presence of 10 μM spiperone was assumed as nonspecific binding.
as §1

Structure (SMILES) | melting point | Ki (Dopamine D2 receptor) | Ki [1]
CN1CCOc2cc(OCCCN3CCN(c4cccc5sccc45)CC3)ccc21.Cl | 248.1 to 249.6 °C | – | –
CN1CCN(Cc2ccc(OCCCN3CCN(c4cccc5sccc45)CC3)cc2)CC1 (as salt: hydrochloride) [Example 314] | 261.5 °C (dec.) | – | –
COc1cc(N2CCCC2)cc(C)c1OCCCN1CCN(c2cccc3sccc23)CC1 (as salt: hydrochloride) [Example 1076] | 246.5 to 249 °C (dec.) | – | –
COc1cc(NC(=O)CN)cc(C)c1OCCCN1CCN(c2cccc3sccc23)CC1 (as salt: hydrochloride) [Example 1060] | 268 °C (dec.) | – | –
COC(=O)N1CCN(c2cc(C)c(OCCCN3CCN(c4cccc5sccc45)CC3)c(OC)c2)C(=O)C1 (as salt: hydrochloride) [Example 1080] | 223 to 228 °C | – | –
CN(C)CCc1ccc(OCCCN2CCN(c3cccc4sccc34)CC2)cc1 (as salt: hydrochloride) [Example 382] | 238.5 °C (dec.) | – | –
CN1CNc2ccc(OCCCN3CCN(c4cccc5sccc45)CC3)cc2C1.Cl | 203.1 to 204.4 °C | – | –
COc1cc(N2CCN(C(C)=O)CC2=O)cc(C)c1OCCCN1CCN(c2cccc3sccc23)CC1 (as salt: hydrochloride) [Example 1079] | 218 to 221.5 °C | – | –
COc1cc(N2CCOC2=O)cc(CO)c1OCCCN1CCN(c2cccc3sccc23)CC1 (as salt: hydrochloride) [Example 1071] | 224 to 226.5 °C (dec.) | – | –
COc1cc(NC=O)cc(C)c1OCCCN1CCN(c2cccc3sccc23)CC1 (as salt: hydrochloride) [Example 354] | 247.5 to 253 °C (dec.) | – | –
CC(=O)N1CCC(OCCCN2CCN(c3cccc4sccc34)CC2)CC1.Cl | 208 to 210 °C | – | –
O=C1Nc2cc(OCCCCN3CCN(c4cccc5sccc45)CC3)ccc2CO1 [Example 133] | – | 0.3 nM | 4.7 nM
Cc1ccc(OCCCN2CCN(c3cccc4sccc34)CC2)cn1 [Example 40] | – | 3.1 nM | 0.6 nM
CCN(CC)CCNC(=O)c1ccc(OCCCN2CCN(c3cccc4sccc34)CC2)cc1 [Example 160] | – | 0.4 nM | 0.6 nM
O=C1CCOc2cc(OCCCN3CCN(c4cccc5sccc45)CC3)ccc2N1 [Example 1027] | – | 1.9 nM | 2 nM
CC(C)N(CCNC(=O)c1ccc(OCCCN2CCN(c3cccc4sccc34)CC2)cc1)C(C)C [Example 546] | – | 0.6 nM | 0.7 nM
O=c1[nH]c2ccc(OCCCN3CCN(c4cccc5sccc45)CC3)cc2[nH]1 [Example 112] | – | 1 nM | 0.7 nM
CC1(C)C(=O)Nc2ccc(OCCCN3CCN(c4cccc5sccc45)CC3)cc21 [Example 1014] | – | 3.3 nM | 4.2 nM
Cn1cnc2ccc(OCCCN3CCN(c4cccc5sccc45)CC3)cc2c1=O [Example 95] | – | 1.9 nM | 2.3 nM

The remaining lines, values ahead:

melting point | Ki (Dopamine D2 receptor) | Ki [1] | Structure (SMILES)
205 to 209.5 °C | – | – | CNC(=O)c1cc(OCCCN2CCN(c3cccc4sccc34)CC2)ncn1 (as salt: hydrochloride) [Example 58]
256.5 °C (dec.) | – | – | CCN(C)Cc1ccc(OCCCN2CCN(c3cccc4sccc34)CC2)c(C)c1 (as salt: hydrochloride) [Example 307]
210.5 to 214.5 °C | – | – | CCNC(=O)c1cc(OCCCN2CCN(c3cccc4sccc34)CC2)n(C)n1 (as salt: hydrochloride) [Example 62]
253 to 258 °C (dec.) | – | – | O=C1Nc2cc(OCCCCN3CCN(c4cccc5sccc45)CC3)ccc2CO1 (as salt: hydrochloride) [Example 133]
140 to 141.5 °C | – | – | CCNC(=O)c1ccnc(OCCCN2CCN(c3cccc4sccc34)CC2)c1 (as salt: hydrochloride) [Example 32]
215 to 217 °C | – | – | O=C1Cc2ccc(OCCCCN3CCN(c4cccc5sccc45)CC3)cc2N1 (as salt: hydrochloride) [Example 127]
186 to 187.5 °C | – | – | CN(C)C(=O)Nc1cc(OCCCCN2CCN(c3cccc4sccc34)CC2)n(C)n1.Cl
247.5 to 251 °C (dec.) | – | – | COc1cc(N2CCOC2=O)cc(C)c1OCCCN1CCN(c2cccc3sccc23)CC1 (as salt: hydrochloride) [Example 358]
155 to 158 °C | – | – | COc1cc(N)cc(C)c1OCCCN1CCN(c2cccc3sccc23)CC1 [Example 9, 4-[3-(4-benzo[b]thiophen-4-yl-piperazin-1-yl)-propoxy]-3-methoxy-5-methylaniline]
259 °C (dec.) | – | – | CN(C)Cc1ccc(OCCCN2CCN(c3cccc4sccc34)CC2)c(Cl)c1 (as salt: hydrochloride) [Example 303]
201.5 to 207.5 °C | – | – | CCNC(=O)c1ccc(OCCCN2CCN(c3cccc4sccc34)CC2)nc1 (as salt: hydrochloride) [Example 26]
163.5 to 165 °C | – | – | CNC(=O)c1ccc(OC)c(OCCCN2CCN(c3cccc4sccc34)CC2)c1 (as salt: hydrochloride) [Example 281]
252.9 to 254.3 °C | – | – | Cn1cnc2ccc(OCCCN3CCN(c4cccc5sccc45)CC3)cc2c1=O (as salt: hydrochloride) [Example 95]
174 to 176.5 °C | – | – | CN(C)C(=O)Nc1cc(OCCCN2CCN(c3cccc4sccc34)CC2)n(C)n1.Cl
138.5 to 140.5 °C | – | – | C=CCn1nc(C(=O)NC)cc1OCCCN1CCN(c2cccc3sccc23)CC1 [Example 3098, 1-allyl-5-[3-(4-benzo[b]thiophen-4-yl-piperazin-1-yl)propoxy]-1H-pyrazole-3-carboxylic acid methylamide]
– | 0.4 nM | 2.4 nM | O=C1Cc2ccc(OCCCCN3CCN(c4cccc5sccc45)CC3)cc2N1 [Example 127]
– | 2.5 nM | 1.7 nM | CNC(=O)c1cc(OCCCN2CCN(c3cccc4sccc34)CC2)cs1 [Example 76]
– | 1.2 nM | 0.6 nM | O=C(NCCCn1ccnc1)c1ccc(OCCCN2CCN(c3cccc4sccc34)CC2)cc1 [Example 650]
– | 0.1 nM | 2.4 nM | O=C1NCc2ccc(OCCCCN3CCN(c4cccc5sccc45)CC3)cc2N1 [Example 146]
– | 2 nM | 4.9 nM | CNC(=O)c1cc(OCCCN2CCN(c3cccc4sccc34)CC2)ncn1 [Example 58]
– | 1.9 nM | 3.5 nM | O=C1CCCc2ccc(OCCCN3CCN(c4cccc5sccc45)CC3)cc2N1 [Example 1026]
– | 0.4 nM | 1.4 nM | CC1Oc2ccc(OCCCCN3CCN(c4cccc5sccc45)CC3)cc2NC1=O (centres unmarked) [Example 144]
– | 0.3 nM | 0.7 nM | CCN(C)Cc1ccc(OCCCN2CCN(c3cccc4sccc34)CC2)c(C)c1 [Example 307]
– | 0.6 nM | 3.4 nM | COC(=O)N(C)c1cc(C)c(OCCCN2CCN(c3cccc4sccc34)CC2)c(OC)c1 [Example 17, methyl N-methyl-{4-[3-(4-benzo[b]thiophen-4-yl-piperazin-1-yl)propoxy]-3-methoxy-5-methylphenyl}carbamate hydrochloride]
– | 0.1 nM | 1.4 nM | COc1cc(N2CCN(C(C)=O)CC2)cc(CO)c1OCCCN1CCN(c2cccc3sccc23)CC1 [Example 1084]
